Measurements: PMC12471299, “Secondary Metabolites of the Marine Sponge-Derived Fungus Aspergillus subramanianii 1901NT-1.40.2 and Their Antimicrobial and Anticancer Activities” (Marine Drugs, 2025)

Tests used:
[1] = system: MCF-7 cells; test: Proliferation assay (CFDA SE, flow cytometry); type: cell-based, human; details: 5 µM, 48 h
Experimental: MCF-7 cells at a concentration of 1.2 × 10^4 cells/well were seeded in a 12-well plate for 24 h. After adhesion, the cells were stained with (5,6)-carboxyfluorescein succinimidyl ester (CFDA SE) dye (LumiTrace CFDA SE kit; Lumiprobe, Moscow, Russia). Thereafter, the compound (5 µM) was added to the wells.
After 48 h of incubation, the cells were washed twice with PBS, scraped, and collected. The intensity of CFDA fluorescence was analyzed using a NovoCyte flow cytometer (Agilent, Austin, TX, USA), and the data were analyzed as previously described.

[2] = system: MCF-7 spheroids; test: Three-dimensional culture of MCF-7 cells, spheroid area; type: cell-based, human
Experimental: The anticancer effect of petromurin C (8) was investigated using a 3D culture of MCF-7 cells (Figure 12). MCF-7 spheroids were formed in agarose microwells using MSLA-printed stamps. Compound 8 (10 µM and 20 µM) was added 24 h after the cells were seeded.
MCF-7 cell spheroids were formed in agarose microwells as described previously. Briefly, agarose (2.8%) heated to 60 °C was added to each well of a 96-well plate, and MSLA-printed stamps with microcylinders were inserted and then removed after agarose solidification. Each well contained 34 microwells with a diameter of 300 μm. MCF-7 cells at a concentration of 2 × 10^4 cells/well were added to each well and gently centrifuged to precipitate the cells that had gathered in the microwells. Petromurin C (8) was added after 24 h, and observations were performed daily using an MIB-2-FL fluorescence microscope (Lomo Microsystems, St. Petersburg, Russia) The spheroid area was calculated using CellProfiler software v. 4.2.8 [51, 52]. In total, at least 20 of the same spheroids in each variant were analyzed daily and data were calculated as mean ± SEM.

[3] = system: Staphylococcus aureus ATCC 21027; test: Biofilm formation assay (MTT); type: cell-based; details: S. aureus, 18 h
Outline: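 MIC50 values derive from percent-of-control data: 50% reduction of growth (OD620, 18 h) or of biofilm (MTT, OD570, 18 h). Test compound ≤100 µM; 1% DMSO in PBS served as negative control.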

[4] = system: vancomycin-resistant enterococci strains; parameters: method as in PMID 29642369; details: cited from earlier work
[5] = system: HCT116 cells; parameters: method as in PMID 29642369; details: HCT116, at 100 µM; cited from earlier work
[6] = system: A375 cells; parameters: method as in PMID 29642369; details: A375, at 100 µM; cited from earlier work

Structure (SMILES) | percentage of cells in division 1 [1] | percentage of cells in division 2 [1] | percentage of cells in division 3 [1] | decrease of spheroid area ([2]; 10 µM, after 24 h) | decrease of spheroid area ([2]; 10 µM, after 72 h) | decrease of spheroid area ([2]; 20 µM, after 24 h) | decrease of spheroid area ([2]; 20 µM, after 72 h) | decrease of the area of MCF-7 3D spheroids ([2]; abstract, concentration and time not stated) | Biofilm formation, MIC50 [3] | antibacterial activity [4] | effect on cells [5] | effect on cells [6]
COc1c(OC)c(-c2c[nH]c3ccc(O)cc23)c(OC)c(OC)c1-c1c[nH]c2ccccc12 [Compound 8, petromurin C] | 76.9% | 15.2% | 5.5% | 19.1% | 28.9% | 29.8% | 32.6% | approximately 30% |  |  |  | 
COC1=C(c2c[nH]c3ccccc23)C(=O)C(CC=C(C)C)=C(c2c[nH]c3ccccc23)C1=O [Compound 6, kumbicin D] |  |  |  |  |  |  |  |  | 7.98 ± 0.57 µM | not active | weak effects | weak effects
